Several values for one entry are separate records, joined by “and”; a condition that tells them apart may be missing. Identical values can stand only once.
Test system: 762968-020-R-J2-PDC spheroids viability
Experiment: Anticancer human tumor 762968-020-R-J2-PDC patient-derived colon carcinoma cell line growth inhibition [TAK]
Details: spheroids with HUVEC and MSC; for viability, T/C: stronger effect = lower value
Procedure, shortened: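 Tumor cells were grown as spheroids with HUVEC and hMSC (60:25:15) and treated with targeted agents combined with TAK-243 or ipatasertib. Drugs were tested in half-log steps down from near the clinical Cmax, or from 10 microM where Cmax was unknown.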

[1] = curve of first compound, second compound 0.3 µM
[2] = curve of first compound, second compound 0.949 µM
[3] = curve of first compound, second compound 3 µM
[4] = curve of first compound, second compound 9.49 µM
[5] = curve of first compound, second compound 30 µM
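Note: spheroids exposed to drug for 7 days before readout.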
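Throughout, for viability, T/C: 100% = DMSO vehicle control wells.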

Compound `Cn1cnc2c(F)c(Nc3ccc(Br)cc3Cl)c(C(=O)NOCCO)cc21` + CC(C)NCC(C(=O)N1CCN(c2ncnc3c2C(C)CC3O)CC1)c1ccc(Cl)cc1 has an IC50 [1] of 2.35 µM, an IC50 [2] of over 3 µM and an IC50 [3] of over 3 µM. For the same compound, the IC50 [4] was over 3 µM, the IC50 [5] was over 3 µM and the viability, T/C (second compound 0.3 µM, first compound 0.00949 µM) was 94.6%. For the same compound, the viability, T/C (second compound 0.3 µM, first compound 0.03 µM) was 95.5%, the viability, T/C (second compound 0.3 µM, first compound 0.0949 µM) was 89.6% and the viability, T/C (second compound 0.3 µM, first compound 0.3 µM) was 84.2%. For the same compound, the viability, T/C (second compound 0.3 µM, first compound 0.949 µM) was 69.9%, the viability, T/C (second compound 0.3 µM, first compound 3 µM) was 44.5% and the viability, T/C (second compound 0.949 µM, first compound 0.00949 µM) was 103%. The viability, T/C (second compound 0.949 µM, first compound 0.03 µM) was 97.5%, the viability, T/C (second compound 0.949 µM, first compound 0.0949 µM) was 87% and the viability, T/C (second compound 0.949 µM, first compound 0.3 µM) was 83.4%. It also gave a viability, T/C (second compound 0.949 µM, first compound 0.949 µM) of 74.8%, a viability, T/C (second compound 0.949 µM, first compound 3 µM) of 50.5% and a viability, T/C (second compound 3 µM, first compound 0.00949 µM) of 106%. The viability, T/C (second compound 3 µM, first compound 0.03 µM) was 97.7%, the viability, T/C (second compound 3 µM, first compound 0.0949 µM) was 95.2% and the viability, T/C (second compound 3 µM, first compound 0.3 µM) was 85.8%. For the same compound, the viability, T/C (second compound 3 µM, first compound 0.949 µM) was 72.2%, the viability, T/C (second compound 3 µM, first compound 3 µM) was 58.4% and the viability, T/C (second compound 9.49 µM, first compound 0.00949 µM) was 96.5%. The viability, T/C (second compound 9.49 µM, first compound 0.03 µM) was 83.7%, the viability, T/C (second compound 9.49 µM, first compound 0.0949 µM) was 80.6% and the viability, T/C (second compound 9.49 µM, first compound 0.3 µM) was 79.1%. The viability, T/C (second compound 9.49 µM, first compound 0.949 µM) was 66.3%, the viability, T/C (second compound 9.49 µM, first compound 3 µM) was 55.8% and the viability, T/C (second compound 30 µM, first compound 0.00949 µM) was 82.7%. It also gave a viability, T/C (second compound 30 µM, first compound 0.03 µM) of 85.3%, a viability, T/C (second compound 30 µM, first compound 0.0949 µM) of 83.2% and a viability, T/C (second compound 30 µM, first compound 0.3 µM) of 79%. The viability, T/C (second compound 30 µM, first compound 0.949 µM) was 70.5% and the viability, T/C (second compound 30 µM, first compound 3 µM) was 57.8%.

Work on `COc1c(OCCCN2CCOCC2)ccc2c3n(c(=NC(=O)c4cnc(N)nc4)nc12)CCN3` + CC(C)NCC(C(=O)N1CCN(c2ncnc3c2C(C)CC3O)CC1)c1ccc(Cl)cc1 yielded an IC50 [1] of over 1 µM, an IC50 [2] of over 1 µM and an IC50 [3] of over 1 µM. It also gave an IC50 [4] of over 1 µM, an IC50 [5] of over 1 µM and a viability, T/C (second compound 0.3 µM, first compound 0.00316 µM) of 95.4%. The viability, T/C (second compound 0.3 µM, first compound 0.01 µM) was 101%, the viability, T/C (second compound 0.3 µM, first compound 0.0316 µM) was 89.3% and the viability, T/C (second compound 0.3 µM, first compound 0.1 µM) was 85.1%. It also gave a viability, T/C (second compound 0.3 µM, first compound 0.316 µM) of 69.4%, a viability, T/C (second compound 0.3 µM, first compound 1 µM) of 66.8% and a viability, T/C (second compound 0.949 µM, first compound 0.00316 µM) of 101%. The viability, T/C (second compound 0.949 µM, first compound 0.01 µM) was 96.7%, the viability, T/C (second compound 0.949 µM, first compound 0.0316 µM) was 94% and the viability, T/C (second compound 0.949 µM, first compound 0.1 µM) was 84.7%. The viability, T/C (second compound 0.949 µM, first compound 0.316 µM) was 71.3%, the viability, T/C (second compound 0.949 µM, first compound 1 µM) was 70% and the viability, T/C (second compound 3 µM, first compound 0.00316 µM) was 105%. For the same compound, the viability, T/C (second compound 3 µM, first compound 0.01 µM) was 100%, the viability, T/C (second compound 3 µM, first compound 0.0316 µM) was 98.3% and the viability, T/C (second compound 3 µM, first compound 0.1 µM) was 89.9%. It also gave a viability, T/C (second compound 3 µM, first compound 0.316 µM) of 71.6%, a viability, T/C (second compound 3 µM, first compound 1 µM) of 60.2% and a viability, T/C (second compound 9.49 µM, first compound 0.00316 µM) of 102%. It also gave a viability, T/C (second compound 9.49 µM, first compound 0.01 µM) of 94.7%, a viability, T/C (second compound 9.49 µM, first compound 0.0316 µM) of 88.6% and a viability, T/C (second compound 9.49 µM, first compound 0.1 µM) of 85%. The viability, T/C (second compound 9.49 µM, first compound 0.316 µM) was 78%, the viability, T/C (second compound 9.49 µM, first compound 1 µM) was 67% and the viability, T/C (second compound 30 µM, first compound 0.00316 µM) was 91.8%. For the same compound, the viability, T/C (second compound 30 µM, first compound 0.01 µM) was 81.3%, the viability, T/C (second compound 30 µM, first compound 0.0316 µM) was 79.4% and the viability, T/C (second compound 30 µM, first compound 0.1 µM) was 69.5%. For the same compound, the viability, T/C (second compound 30 µM, first compound 0.316 µM) was 68.7% and the viability, T/C (second compound 30 µM, first compound 1 µM) was 59.1%.

In the case of `CC(=O)Nc1cccc(-n2c(=O)n(C3CC3)c(=O)c3c(Nc4ccc(I)cc4F)n(C)c(=O)c(C)c32)c1`, the viability, T/C (compound 94.9 pM) is reported as 98.7% and 103%, the viability, T/C (compound 0.0003 µM) is reported as 103% and 97.5% and the viability, T/C (compound 0.000949 µM) is reported as 97.3%. The viability, T/C (compound 0.003 µM) was 86.9% and 80.5%, the viability, T/C (compound 0.00949 µM) was 60.6% and 73.2% and the viability, T/C (compound 0.03 µM) was 41.2% and 39%. For the same compound, the IC50 (curve of compound) was 0.0178 µM and 0.0204 µM.

Source: PubChem BioAssay AID2060349 (Molecular Pharmacology Branch, DTP, NCI, 2025)
